{"source": "patent US6737441B2", "about": "“Treatment of helicobacter with isothiocyanates” (priority 2000, dated 2004)", "key": {"[1]": {"test_system": "amoxicillin/clarithromycin/metronidazole - susceptible strains of Helicobacter pylori", "experiment": "Bacteriostatic activity (MIC) against susceptible strains", "format": "cell-based", "conditions": "for MIC: Helicobacter pylori, read-out: MIC"}, "[2]": {"test_system": "clarithromycin and/or metronidazole - intermediate or resistant strains of Helicobacter pylori", "experiment": "Bacteriostatic activity (MIC) against intermediate or resistant strains", "format": "cell-based", "conditions": "Helicobacter pylori, read-out: MIC"}, "[3]": {"test_system": "Helicobacter pylori"}, "[4]": {"test_system": "Helicobacter pylori", "experiment": "microbe, parasite or virus in culture"}}, "note": "Read-outs that look alike come from different tables or passages of the source."}
{"smiles": "C[S+]([O-])CCCCN=C=S", "note": "(stereo not drawn) [Sulforaphane, 4-methylsulfinylbutyl isothiocyanate]", "values": [{"measurement": "MIC", "setting": "[1]; H. pylori strain no 1", "result": 2, "unit": "µg/mL"}, {"measurement": "MIC", "setting": "[1]; H. pylori strain no 2", "result": 4, "unit": "µg/mL"}, {"measurement": "MIC", "setting": "[1]; H. pylori strain no 3", "result": 2, "unit": "µg/mL"}, {"measurement": "MIC", "setting": "[1]; H. pylori strain no 4", "result": 4, "unit": "µg/mL"}, {"measurement": "MIC", "setting": "[1]; H. pylori strain no 5", "result": 4, "unit": "µg/mL"}, {"measurement": "MIC", "setting": "[1]; H. pylori strain no 6", "result": 0.06, "unit": "µg/mL"}, {"measurement": "MIC", "setting": "[1]; H. pylori strain no 7", "result": 0.06, "unit": "µg/mL"}, {"measurement": "MIC", "setting": "[1]; H. pylori strain no 8", "result": 0.5, "unit": "µg/mL"}, {"measurement": "MIC", "setting": "[1]; H. pylori strain no 9", "result": 2, "unit": "µg/mL"}, {"measurement": "MIC", "setting": "[1]; H. pylori strain no 10", "result": 0.06, "unit": "µg/mL"}, {"measurement": "MIC", "setting": "[1]; H. pylori strain no 11", "result": 2, "unit": "µg/mL"}, {"measurement": "MIC", "setting": "[1]; H. pylori strain no 12", "result": 4, "unit": "µg/mL"}, {"measurement": "MIC", "setting": "[1]; H. pylori strain no 13", "result": 4, "unit": "µg/mL"}, {"measurement": "MIC", "setting": "[1]; H. pylori strain no 14", "result": 0.06, "unit": "µg/mL"}, {"measurement": "MIC", "setting": "[1]; H. pylori strain no 15", "result": 0.06, "unit": "µg/mL"}, {"measurement": "MIC", "setting": "[1]; H. pylori strain no 16", "result": 1, "unit": "µg/mL"}, {"measurement": "MIC", "setting": "[1]; H. pylori strain no 17", "result": 0.5, "unit": "µg/mL"}, {"measurement": "MIC", "setting": "[1]; H. pylori strain no 18", "result": 0.5, "unit": "µg/mL"}, {"measurement": "MIC", "setting": "[1]; H. pylori strain no 19", "result": 2, "unit": "µg/mL"}, {"measurement": "MIC", "setting": "[1]; H. pylori strain no 20", "result": 0.5, "unit": "µg/mL"}, {"measurement": "MIC", "setting": "[1]; H. pylori strain no 21", "result": 0.5, "unit": "µg/mL"}, {"measurement": "MIC", "setting": "[1]; H. pylori strain no 22", "result": 0.06, "unit": "µg/mL"}, {"measurement": "MIC", "setting": "[1]; H. pylori strain no 23", "result": 0.06, "unit": "µg/mL"}, {"measurement": "MIC", "setting": "[1]; H. pylori strain no 24", "result": 1, "unit": "µg/mL"}, {"measurement": "MIC", "setting": "[1]; H. pylori strain no 25", "result": 0.5, "unit": "µg/mL"}, {"measurement": "MIC", "setting": "[1]; H. pylori strain no 26", "result": 0.5, "unit": "µg/mL"}, {"measurement": "MIC", "setting": "[1]; H. pylori strain no 27", "result": 0.06, "unit": "µg/mL"}, {"measurement": "MIC", "setting": "[1]; H. pylori strain no 28", "result": 0.5, "unit": "µg/mL"}, {"measurement": "MIC", "setting": "[1]; H. pylori strain no 29", "result": 2, "unit": "µg/mL"}, {"measurement": "MIC", "setting": "[1]; H. pylori strain no 30", "result": 0.06, "unit": "µg/mL"}, {"measurement": "MIC", "setting": "[1]; H. pylori strain no 31", "result": 4, "unit": "µg/mL"}, {"measurement": "MIC", "setting": "[1]; H. pylori strain no 32", "result": 2, "unit": "µg/mL"}, {"measurement": "inhibiting the growth of H. pylori compared to traditional antibiotics", "setting": "[1]; versus amoxycillin, clarithromycin and metronidazole, several strains (Tables 1 and 2)", "result": "as effective, if not more effective"}, {"measurement": "MIC", "setting": "[2]; H. pylori strain no 33", "result": 4, "unit": "µg/mL"}, {"measurement": "MIC", "setting": "[2]; H. pylori strain no 34", "result": 0.5, "unit": "µg/mL"}, {"measurement": "MIC", "setting": "[2]; H. pylori strain no 35", "result": 4, "unit": "µg/mL"}, {"measurement": "MIC", "setting": "[2]; H. pylori strain no 36", "result": 4, "unit": "µg/mL"}, {"measurement": "MIC", "setting": "[2]; H. pylori strain no 37", "result": 0.5, "unit": "µg/mL"}, {"measurement": "MIC", "setting": "[2]; H. pylori strain no 38", "result": 2, "unit": "µg/mL"}, {"measurement": "MIC", "setting": "[2]; H. pylori strain no 39", "result": 0.5, "unit": "µg/mL"}, {"measurement": "MIC", "setting": "[2]; H. pylori strain no 40", "result": 4, "unit": "µg/mL"}, {"measurement": "MIC", "setting": "[2]; H. pylori strain no 41", "result": 0.125, "unit": "µg/mL"}, {"measurement": "MIC", "setting": "[2]; H. pylori strain no 42", "result": 4, "unit": "µg/mL"}, {"measurement": "MIC", "setting": "[2]; H. pylori strain no 43", "result": 8, "unit": "µg/mL"}, {"measurement": "MIC", "setting": "[2]; H. pylori strain no 44", "result": 0.5, "unit": "µg/mL"}, {"measurement": "MIC", "setting": "[2]; H. pylori strain no 45", "result": 1, "unit": "µg/mL"}, {"measurement": "MIC", "setting": "[2]; H. pylori strain no 46", "result": 2, "unit": "µg/mL"}, {"measurement": "MIC", "setting": "[2]; H. pylori strain no 47", "result": 4, "unit": "µg/mL"}, {"measurement": "Time (h) at which 99.9% intracellular killing was observed", "setting": "[3]; HP 1, 1 × MIC, tested in triplicate", "result": 8, "unit": "h"}, {"measurement": "Time (h) at which 99.9% intracellular killing was observed", "setting": "[3]; HP 1, 5 × MIC, tested in triplicate", "result": 8, "unit": "h"}, {"measurement": "Time (h) at which 99.9% intracellular killing was observed", "setting": "[3]; HP 1, 10 × MIC, tested in triplicate", "result": 8, "unit": "h"}, {"measurement": "Time (h) at which 99.9% intracellular killing was observed", "setting": "[3]; HP 1, 20 × MIC, tested in triplicate", "result": 8, "unit": "h"}, {"measurement": "Actual reductions (log10CFU)", "setting": "[3]; HP 2, 2 h, 1x MIC", "result": 0, "unit": "log10CFU"}, {"measurement": "Actual reductions (log10CFU)", "setting": "[3]; HP 2, 2 h, 5x MIC", "result": 0, "unit": "log10CFU"}, {"measurement": "Actual reductions (log10CFU)", "setting": "[3]; HP 2, 2 h, 10x MIC", "result": 0, "unit": "log10CFU"}, {"measurement": "Actual reductions (log10CFU)", "setting": "[3]; HP 2, 2 h, 20x MIC", "result": "−0.12", "unit": "log10CFU"}, {"measurement": "Actual reductions (log10CFU)", "setting": "[3]; HP 2, 4 h, 1x MIC", "result": "−0.79", "unit": "log10CFU"}, {"measurement": "Actual reductions (log10CFU)", "setting": "[3]; HP 2, 4 h, 5x MIC", "result": "−0.90", "unit": "log10CFU"}, {"measurement": "Actual reductions (log10CFU)", "setting": "[3]; HP 2, 4 h, 10x MIC", "result": "−1.17", "unit": "log10CFU"}, {"measurement": "Actual reductions (log10CFU)", "setting": "[3]; HP 2, 4 h, 20x MIC", "result": "−1.30", "unit": "log10CFU"}, {"measurement": "Actual reductions (log10CFU)", "setting": "[3]; HP 2, 8 h, 1x MIC", "result": "−0.90", "unit": "log10CFU"}, {"measurement": "Actual reductions (log10CFU)", "setting": "[3]; HP 2, 8 h, 5x MIC", "result": "−0.90", "unit": "log10CFU"}, {"measurement": "Actual reductions (log10CFU)", "setting": "[3]; HP 2, 8 h, 10x MIC", "result": "−1.30", "unit": "log10CFU"}, {"measurement": "Actual reductions (log10CFU)", "setting": "[3]; HP 2, 8 h, 20x MIC", "result": "−1.40", "unit": "log10CFU"}, {"measurement": "Actual reductions (log10CFU)", "setting": "[3]; HP 2, 24 h, 1x MIC", "result": "−1.18", "unit": "log10CFU"}, {"measurement": "Actual reductions (log10CFU)", "setting": "[3]; HP 2, 24 h, 5x MIC", "result": "−1.20", "unit": "log10CFU"}, {"measurement": "Actual reductions (log10CFU)", "setting": "[3]; HP 2, 24 h, 10x MIC", "result": "−1.34", "unit": "log10CFU"}, {"measurement": "Actual reductions (log10CFU)", "setting": "[3]; HP 2, 24 h, 20x MIC", "result": "−1.40", "unit": "log10CFU"}, {"measurement": "Actual reductions (log10CFU)", "setting": "[3]; HP 2, 48 h, 1x MIC", "result": "−1.20", "unit": "log10CFU"}, {"measurement": "Actual reductions (log10CFU)", "setting": "[3]; HP 2, 48 h, 5x MIC", "result": "−1.20", "unit": "log10CFU"}, {"measurement": "Actual reductions (log10CFU)", "setting": "[3]; HP 2, 48 h, 10x MIC", "result": "−1.40", "unit": "log10CFU"}, {"measurement": "Actual reductions (log10CFU)", "setting": "[3]; HP 2, 48 h, 20x MIC", "result": "−1.40", "unit": "log10CFU"}, {"measurement": "Time (h) at which 99.9% intracellular killing was observed", "setting": "[3]; HP 3, 1 × MIC, tested in triplicate", "result": 4, "unit": "h"}, {"measurement": "Time (h) at which 99.9% intracellular killing was observed", "setting": "[3]; HP 3, 5 × MIC, tested in triplicate", "result": 4, "unit": "h"}, {"measurement": "Time (h) at which 99.9% intracellular killing was observed", "setting": "[3]; HP 3, 10 × MIC, tested in triplicate", "result": 4, "unit": "h"}, {"measurement": "Time (h) at which 99.9% intracellular killing was observed", "setting": "[3]; HP 3, 20 × MIC, tested in triplicate", "result": 2, "unit": "h"}, {"measurement": "Time (h) at which 99.9% intracellular killing was observed", "setting": "[3]; HP 4, 1 × MIC, tested in duplicate, not definitive", "result": 8, "unit": "h"}, {"measurement": "Time (h) at which 99.9% intracellular killing was observed", "setting": "[3]; HP 4, 5 × MIC, tested in duplicate, not definitive", "result": 8, "unit": "h"}, {"measurement": "Time (h) at which 99.9% intracellular killing was observed", "setting": "[3]; HP 4, 10 × MIC, tested in duplicate, not definitive", "result": 8, "unit": "h"}, {"measurement": "Time (h) at which 99.9% intracellular killing was observed", "setting": "[3]; HP 4, 20 × MIC, tested in duplicate, not definitive", "result": 4, "unit": "h"}, {"measurement": "MIC", "setting": "[4]; strain HP 1", "result": 2, "unit": "µg/mL"}, {"measurement": "MIC", "setting": "[4]; strain HP 2", "result": 2, "unit": "µg/mL"}, {"measurement": "MIC", "setting": "[4]; strain HP 3", "result": 4, "unit": "µg/mL"}, {"measurement": "MIC", "setting": "[4]; strain HP 4", "result": 0.06, "unit": "µg/mL"}]}
